These results are taken from patent US9956211B2, “Pharmaceutical compositions comprising a local anaesthetic such as bupivacaine for local administration to the mouth or throat” (MOBERG PHARMA AB, priority 2011, dated 2018).

Read-outs that look alike come from different tables or passages of the source.

The conditions of series [1]: cited from earlier work.
Series [2] in a line: Pilot study Aarhus: kinetics, non-intact mucosa. The conditions noted are these: 25 mg lozenge, three head or neck cancer patients, stage 3 mucositis, non-intact oral mucosa. It is filed as in vivo, human. As for the experimental part: The study was conducted over 2-3 hours on three patients from Aarhus University hospital. The patients were suffering from head or neck cancer with stage 3 mucositis with a non-intact oral mucosa. The aim of the study was to investigate the pharmacokinetics of bupivacaine by topical oral administration of a 25 mg lozenge. A baseline blood sample was taken, followed by administration of the lozenge, and then blood samples were taken at 0 min (i.e. when the lozenge is completely dissolved in the mouth), 15 min, 30 min, 45 min, 60 min, 75 min, 90 min, 105 min, 120 min, 150 min and 180 min.

The conditions of series [3]: safety pharmacology, single and repeated dose toxicity, reproduction toxicity, mutagenic potential, local toxicity; cited from earlier work.
Series [4] is described as follows: Study VII: single dose kinetics, fasting. It counts as in vivo, human. Conditions: 25 mg compressed lozenge, fasting vs not fasting. The procedure: The single dose kinetics was conducted over 10 hours. The subjects had been fasting from 12 pm the night before the study began. The subjects were administrated a compressed lozenge containing 25 mg of bupivacaine. The blood collection began at approximately 7 am.
In our previous results we have seen an extra peak. The aim of this study was to investigate if the extra peak was from gastrointestinal absorption.
Baseline blood sample. Administration of lozenge. Blood sample at the following times: 0 min, 15 min, 30 min, 45 min, 60 min, 75 min, 90 min, 105 min, 120 min, 150 min, 180 min, 210 min, 240 min, 300 min, 360 min, 420 min, 480 min, 540 min and 600 min. (Time 0 minutes is when the lozenge is completely dissolved in the mouth.)

Series [5] can be described thus: Study II: multiple doses kinetics. It is filed as in vivo, human. The conditions noted are these: 25 mg lozenge four times a day, 72 hours. As for the experimental part:
(§1) These are prospective, descriptive studies. The subjects were ten healthy young males. Samples of full blood were taken in lithium-heparin pipes for anticoagulant effect. After the blood sample is collected it is centrifuged at 2500 rounds per minute for 15 minutes at 4° C. Approximately 1 ml plasma is taken from the sample and put into vials and right away put into a −80° C. freezer, where it is kept until analysis.
The multiple doses study was conducted over 72 hours consecutively, where the subjects were administrated a lozenge containing 25 mg of bupivacaine four times a day in the awake hours.
The aim of the study was to measure the concentration of bupivacaine in the blood after absorption from an intact oral mucosa after administration of a lozenge containing 25 mg of bupivacaine given four times a day. […] Therefore the lozenges were administered at 8 am, […], 6 pm and 10 pm, to give a total daily dose of 100 mg bupivacaine.
The subjects drank 250 ml water to remove any traces of coffee, cola or other potential absorption enhancers. After 10 minutes a compressed lozenge was administered.

The conditions of series [6]: plasma concentration; cited from earlier work.
The nature of series [7]: Activity after heating during the casting process. It counts as physicochemical. The conditions noted are these: heated at up to 180° C. during the casting process.
Series [8] can be described thus: Study I: single dose kinetics of compressed bupivacaine lozenge. It counts as in vivo, human. The procedure:
Bupivacaine has not been used as local oral administration before.
The purpose of this study is to investigate the pharmacokinetics of bupivacaine after topical oral administration. The plasma concentration of bupivacaine is measured after absorption over an intact oral mucosa after administration of a compressed lozenge containing respectively 5, 10, 25 and 50 mg bupivacaine as a single dose and 25 mg as multiple doses.
as §1
The aim of the study was to investigate the pharmacokinetics of bupivacaine by topical oral administration. The concentration of bupivacaine was measured in the blood after absorption from an intact oral mucosa after administration of a compressed lozenge containing respectively 5, 10 or 25 mg of bupivacaine. On study days 1, 2, 3 and 4 (interspersed with single wash-out days) the subjects were given one 5 mg lozenge, one 10 mg lozenge, one 25 mg lozenge or two 25 mg lozenges, respectively.
Before the study began, the subjects drank 250 ml water to remove any traces of coffee, cola or other potential absorption enhancers. After 10 minutes a compressed lozenge was administered. […] A baseline blood sample was taken, the lozenge was administered and then blood samples were taken at 0 min (i.e. when the lozenge has completely dissolved in the mouth, 15 min, 30 min, 45 min, 60 min, 75 min, 90 min, 105 min, 120 min, 150 min, 180 min, 210 min, 240 min, 270 min, 300 min, 330 min and 360 min.

The mark [9] stands for this setting: standard aqueous medium, pH7.4, 25° C.

For the molecule `CCOC(=O)c1ccc(N)cc1` [benzocaine], the octanol/water partition coefficient in series [1] (setting [9]) is on record as 81.

On to `CCCCN1CCCCC1C(=O)Nc1c(C)cccc1C` (stereo not drawn) [bupivacaine, 1-butyl-N-(2,6-dimethylphenyl)piperidine-2-carboxamide], for which the “maximum plasma concentration of bupivacaine” value in series [2] is “below 700 ng/ml”. Also, in series [3], the “risks for humans from preclinical safety data” value was “no special risks for humans”. Besides, the octanol/water partition coefficient in series [1] (setting [9]) is reported as 346. The “influence of fasting on plasma level” value in series [4] is “did not influence the results”. In series [5], the “accumulation in the body” value is reported as “not being accumulated in the body” and the peak plasma concentrations entry is “lower than the toxic level”. Further, in series [6], the “toxic level in man” value is 2 to 4 µg/mL. Further, the activity after heating result in series [7] was “retains full activity”. For the same molecule, in series [8] (5 mg and 10 mg compressed lozenge), the discomfort result is recorded as “none of them felt any discomfort”. In series [8] (5 mg and 10 mg compressed lozenge, healthy subjects), the anesthetic effect felt result was “felt the anesthetic effect”. Further, in series [8] (25 mg compressed lozenge), the “discomfort, especially in the pharynx” value is listed as “some of the subjects felt discomfort”. The discomfort entry in series [8] (50 mg (two 25 mg lozenges)) is given as “discomfort was further increased”. Also, in series [8] (5, 10, 25 and 50 mg single doses), the side effects entry was “None of the subjects experienced any side effects”. For the same molecule, the “maximum bupivacaine plasma concentration” value in series [8] (maximum dosage 50 mg (two 25 mg compressed lozenges), single dose, intact oral mucosa, healthy subjects) is “less than 600 ng/ml”.

Consider `CCCN(CC)C(CC)C(=O)Nc1c(C)cccc1C` (stereo not drawn) [etidocaine], for which, in series [1] (setting [9]), the octanol/water partition coefficient is 800.

Consider `CCCN1CCCC[C@H]1C(=O)Nc1c(C)cccc1C` [ropivacaine], for which the octanol/water partition coefficient in series [1] (setting [9]) is given as 115.

Consider levobupivacaine, for which the octanol/water partition coefficient in series [1] (pH 7.4) is 346.
